Results reported in US12303474B2, “S-enantiomerically enriched compositions of beta blockers for treating amyotrophic lateral sclerosis” (priority 2013, dated 2025).
Read-outs that look alike come from different tables or passages of the source.

What was measured:
[1] = test system: G93A SOD1 B6SJL hybrid (G93A) model; test: Body weight and body composition (lean mass, fat mass; NMR scans) in G93A SOD1 transgenic mice; type: in vivo; conditions: for Average Δ fat mass / Average Δ lean mass / Average Δ body weight: per day alive after disease onset
Description: (§1) Transgenic mice over-expressing a high copy number (25 copies) of mutated human SOD1 gene with a G93A point mutation, i.e., B6SJL-TgN [SOD1-G93A]1 Gur (G1H-G93A transgenic mice, JR2726; Hemizygote) (Gurney M E, et al., Science, 264, 1772-1775, 1994) (“G93A SOD1 B6SJL hybrid (G93A) model”), were used.
[…] […] There were 16 mice in the S-oxprenolol group.
The primary endpoint was survival, humanely defined as the ability of the animal to right itself in 30 seconds after being laid on its side. Secondary endpoints were body weight, body composition, spontaneous activity and food intake. Body weight of the animals was assessed weekly until onset of disease. Additionally, body composition (fat mass and lean body mass) was assessed using NMR scans (EchoMRI-100, Echo Medical Systems, Houston, USA) every 4 days. After onset of disease, body weight and body composition were assessed every two days until the end of the study. All personal handling the animals was strictly blinded to the randomized treatment allocation.
To study the effect of S-oxprenolol on body weight, body weight was monitored over time.
To study the effect of the test compounds on lean body mass, lean mass was determined at the end of the study.
To study the effect of the test compounds on fat mass, the fat mass were determined at the end of the study.
To study the effect of S-oxprenolol on body weight, body weight was monitored over time. […] The number of all mice in the population is indicated as “n” in at the bottom of FIGS. 20A-20C.
To study the effect of the test compounds on lean body mass, lean mass was determined at the end of the study. […] The number of all mice in the population is indicated as “n” in at the bottom of FIGS. 20D-20F.
To study the effect of the test compounds on fat mass, the fat mass were determined at the end of the study. […] The number of all mice in the population is indicated as “n” in at the bottom of FIGS. 20G-20I.

[2] = test system: G93A SOD1 B6SJL hybrid (G93A) model; conditions: for Heart / gastrocnemius: end of study;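 on HR survival (FIG. 14): dosing began after ALS onset in G93A SOD1 mice, with survival as the endpoint, defined humanely as the animal failing to regain upright posture within 30 s when placed sideways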;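 on HR survival (FIG. 16): dosing began after ALS onset in G93A SOD1 mice, with survival as the endpoint, defined humanely as the animal failing to regain upright posture within 30 s when placed sideways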
Procedure: as §1
To study the effect of the test compounds on skeletal muscle atrophy, the skeletal muscle mass were determined at the end of the study.
The number of all mice in the population is indicated as “n” in at the bottom of FIGS. 21A-21C.
The number of all mice in the population is indicated as “n” in at the bottom of FIGS. 20D-20F.
The number of all mice in the population is indicated as “n” in at the bottom of FIGS. 21G-21I.

[3] = test system: G93A SOD1 B6SJL hybrid (G93A) model; conditions: 20 mg/kg/day vs. placebo;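 on HR survival (FIG. 14): dosing began after ALS onset in G93A SOD1 mice, with survival as the endpoint, defined humanely as the animal failing to regain upright posture within 30 s when placed sideways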;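 on HR survival (FIG. 16): dosing began after ALS onset in G93A SOD1 mice, with survival as the endpoint, defined humanely as the animal failing to regain upright posture within 30 s when placed sideways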
Description: To study the effect of S-oxprenolol on survival, survival was monitored over time.

[4] = test system: G93A SOD1 B6SJL hybrid (G93A) model; test: Disease progression score (JAX SOP) in G93A SOD1 transgenic mice
Description: The disease progression score is based on the JAX SOP (Ludolph A C, Bendotti C, Blaugrund E, Hengerer B, Loffler J P, Martin J, Meininger V, Meyer T, Moussaoui S, Robberecht W, Scott S, Silani V, Van Den Berg L H (ENMC Group For The Establishment Of Guidelines For The Conduct Of Preclinical And Proof Of Concept Studies In ALS/MND Models). 2007, which is incorporated by reference).

Work on `C=CCOc1ccccc1OCC(O)CNC(C)C` (racemic) [oxprenolol, 1-[2-(allyloxy)phenoxy]-3-(isopropylamino)propan-2-ol] yielded a Δ body weight ([1]; all mice, 20 mg/kg/d) of -5.59 ± 0.48 g, a Δ fat mass ([1]; all mice, 20 mg/kg/d) of -1.49 ± 0.12 g and a Δ lean mass ([1]; all mice, 20 mg/kg/d) of -4.67 ± 0.42 g. The “Average Δ fat mass” value ([1]; all mice, 20 mg/kg/d) was -33.1 ± 2.6 mg/day, the “Average Δ lean mass” value ([1]; all mice, 20 mg/kg/d) was -102.0 ± 10.7 mg/day and the Δ body weight ([1]; female mice, 20 mg/kg/d) was -5.27 ± 0.61 g. For the same molecule, the Δ fat mass ([1]; female mice, 20 mg/kg/d) was -1.64 ± 0.21 g, the Δ lean mass ([1]; female mice, 20 mg/kg/d) was -3.76 ± 0.42 g and the “Average Δ body weight” value ([1]; female mice, 20 mg/kg/d) was -122.5 ± 14.7 mg/day. The “Average Δ fat mass” value ([1]; female mice, 20 mg/kg/d) was -37.5 ± 3.7 mg/day, the “Average Δ lean mass” value ([1]; female mice, 20 mg/kg/d) was -85.8 ± 11.6 mg/day and the Δ body weight ([1]; male mice, 20 mg/kg/d) was -5.94 ± 0.77 g. The Δ fat mass ([1]; male mice, 20 mg/kg/d) was -1.33 ± 0.13 g, the Δ lean mass ([1]; male mice, 20 mg/kg/d) was -5.64 ± 0.68 g and the “Average Δ body weight” value ([1]; male mice, 20 mg/kg/d) was -124.8 ± 20.7 mg/day. For the same molecule, the “Average Δ fat mass” value ([1]; male mice, 20 mg/kg/d) was -28.3 ± 3.1 mg/day, the “Average Δ lean mass” value ([1]; male mice, 20 mg/kg/d) was -119.4 ± 17.7 mg/day and the “BAT (brown adipose tissue)” value ([2]; all mice, 20 mg/kg/d) was 40.6 ± 2.8 mg. The “EDL (extensor digitorum longus)” value ([2]; all mice, 20 mg/kg/d) was 7.24 ± 0.41 mg, the soleus ([2]; all mice, 20 mg/kg/d) was 4.99 ± 0.36 mg and the Heart ([2]; all mice, 20 mg/kg/d) was 100.2 ± 3.2 mg. The gastrocnemius ([2]; all mice, 20 mg/kg/d) was 52.2 ± 2.3 mg, the “BAT (brown adipose tissue)” value ([2]; female mice, 20 mg/kg/d) was 35.2 ± 4.1 mg and the “EDL (extensor digitorum longus)” value ([2]; female mice, 20 mg/kg/d) was 6.97 ± 0.36 mg. It also gave a soleus ([2]; female mice, 20 mg/kg/d) of 4.76 ± 0.52 mg, a Heart ([2]; female mice, 20 mg/kg/d) of 89.5 ± 2.4 mg and a gastrocnemius ([2]; female mice, 20 mg/kg/d) of 49.5 ± 2.1 mg. For the same molecule, the “BAT (brown adipose tissue)” value ([2]; male mice, 20 mg/kg/d) was 45.7 ± 3.6 mg, the “EDL (extensor digitorum longus)” value ([2]; male mice, 20 mg/kg/d) was 7.49 ± 0.72 mg and the soleus ([2]; male mice, 20 mg/kg/d) was 5.21 ± 0.51 mg. The Heart ([2]; male mice, 20 mg/kg/d) was 110.2 ± 2.9 mg, the gastrocnemius ([2]; male mice, 20 mg/kg/d) was 54.7 ± 3.9 mg and the “HR survival (FIG. 14)” value ([3]; all mice) was 0.66. For the same molecule, the “HR survival (FIG. 16)” value ([3]; female mice) was 1.03, the “HR survival (FIG. 15)” value ([3]; male mice) was 0.38 and the “HR Progression from score 1 to score 2 (FIG. 17)” value ([4]; 20 mg/kg/day vs. placebo) was 0.60. The “HR Progression from score 1 to score 3 (FIG. 19)” value ([4]; 20 mg/kg/day vs. placebo) was 0.60 and the “HR Progression from score 2 to score 3 (FIG. 18)” value ([4]; 20 mg/kg/day vs. placebo) was 0.77.

Molecule `Nc1nc2ccc(OC(F)(F)F)cc2s1` [rilutek] has a Δ body weight ([1]; all mice, 30 mg/kg/d) of -5.10 ± 0.35 g, a Δ fat mass ([1]; all mice, 30 mg/kg/d) of -1.91 ± 0.15 g and a Δ lean mass ([1]; all mice, 30 mg/kg/d) of -3.71 ± 0.27 g. For the same molecule, the “Average Δ body weight” value ([1]; all mice, 30 mg/kg/d) was -121.6 ± 15.2 mg/day, the “Average Δ fat mass” value ([1]; all mice, 30 mg/kg/d) was -50.1 ± 6.1 mg/day and the “Average Δ lean mass” value ([1]; all mice, 30 mg/kg/d) was -92.31 ± 15.84 mg/day. It also gave a Δ body weight ([1]; female mice, 30 mg/kg/d) of -4.49 ± 0.46 g, a Δ fat mass ([1]; female mice, 30 mg/kg/d) of -1.76 ± 0.21 g and a Δ lean mass ([1]; female mice, 30 mg/kg/d) of -3.31 ± 0.37 g. For the same molecule, the “Average Δ body weight” value ([1]; female mice, 30 mg/kg/d) was -122.9 ± 25.7 mg/day, the “Average Δ fat mass” value ([1]; female mice, 30 mg/kg/d) was -42.2 ± 6.1 mg/day and the “Average Δ lean mass” value ([1]; female mice, 30 mg/kg/d) was -96.9 ± 24.2 mg/day. The Δ body weight ([1]; male mice, 30 mg/kg/d) was -5.91 ± 0.43 g, the Δ fat mass ([1]; male mice, 30 mg/kg/d) was -2.09 ± 0.22 g and the Δ lean mass ([1]; male mice, 30 mg/kg/d) was -4.19 ± 0.38 g. The “Average Δ body weight” value ([1]; male mice, 30 mg/kg/d) was -120.4 ± 17.9 mg/day, the “Average Δ fat mass” value ([1]; male mice, 30 mg/kg/d) was -57.5 ± 11.3 mg/day and the “Average Δ lean mass” value ([1]; male mice, 30 mg/kg/d) was -87.4 ± 21.1 mg/day. For the same molecule, the “EDL (extensor digitorum longus)” value ([2]; all mice, 30 mg/kg/d) was 6.71 ± 0.32 mg, the soleus ([2]; all mice, 30 mg/kg/d) was 5.47 ± 0.39 mg and the Heart ([2]; all mice, 30 mg/kg/d) was 103.5 ± 2.8 mg. For the same molecule, the gastrocnemius ([2]; all mice, 30 mg/kg/d) was 55.2 ± 3.0 mg, the “EDL (extensor digitorum longus)” value ([2]; female mice, 30 mg/kg/d) was 6.28 ± 039 mg and the soleus ([2]; female mice, 30 mg/kg/d) was 5.26 ± 0.48 mg. For the same molecule, the Heart ([2]; female mice, 30 mg/kg/d) was 91.4 ± 2.3 mg, the gastrocnemius ([2]; female mice, 30 mg/kg/d) was 54.1 ± 3.8 mg and the “EDL (extensor digitorum longus)” value ([2]; male mice, 30 mg/kg/d) was 7.20 ± 0.51 mg. For the same molecule, the soleus ([2]; male mice, 30 mg/kg/d) was 5.72 ± 0.64 mg, the Heart ([2]; male mice, 30 mg/kg/d) was 115.6 ± 2.4 mg and the gastrocnemius ([2]; male mice, 30 mg/kg/d) was 58.3 ± 4.9 mg. The “HR Progression from score 1 to score 2 (FIG. 17)” value ([4]; 30 mg/kg/day vs. placebo) was 0.82, the “HR Progression from score 1 to score 3 (FIG. 19)” value ([4]; 30 mg/kg/day vs. placebo) was 0.76 and the “HR Progression from score 2 to score 3 (FIG. 18)” value ([4]; 30 mg/kg/day vs. placebo) was 0.68.
